Source: paper PMC3907537, “Evaluation of the Endothelin Receptor Antagonists Ambrisentan, Bosentan, Macitentan, and Sitaxsentan as Hepatobiliary Transporter Inhibitors and Substrates in Sandwich-Cultured Human Hepatocytes” (PLoS ONE, 2014)

System: sandwich-cultured human hepatocytes
Test: ERA effect on hepatobiliary disposition of d8-taurocholate (B-CLEAR sandwich culture)
Type: cell-based
Settings: 100 µM control inhibitor
Experimental: Sandwich-cultured human hepatocytes were obtained from Celsis/IVT (Baltimore, MD) or Life Technologies (Durham, NC). Donors were male (n = 3) and female (n = 1) between the ages of 31 and 62 years old. Hepatic uptake, biliary excretion and in vitro biliary clearance (Clb) were determined using the B-CLEAR® hepatocyte sandwich culture model as described by Liu et al., 1999 [34]. In this system, hepatocytes form functional bile canalicular networks while maintaining the expression and function of key uptake and efflux transporters. The canalicular system of bile pockets remains separate from the cellular culture media due to tight junctions between cells. The integrity of these tight junctions is maintained in the presence of calcium (Plus (+) buffer) while in the absence of calcium (Minus (−) buffer), these tight junctions open and release the contents of the canalicular network into the media.
A dose solution containing 2.5 µM d8-taurocholic acid (d8-TCA) was prepared in Plus (+) Buffer. Co-incubation solutions were prepared by combining d8-TCA dose solution and ERA or rifamycin-SV. Hepatocytes were washed and then conditioned for 10 min in warm Plus (+) or Minus (−) buffer with and without ERA or rifamycin-SV. Pre-incubation solutions were then removed and replaced with dose or co-incubation solutions and incubated for 10 min at 37°C. Following this 10 minute incubation, the dose or co-incubation solutions were removed and the cells were then washed three times with ice-cold Plus (+) buffer. The plates were then frozen at −80°C until processed for bioanalysis.
Study samples were stored in their original 24-well plates at −80°C until prepared for analysis. A volume of 500 µL of cell lysis solution (70∶30 methanol:water) containing 25 nM internal standard was added to each well and mixed for 20 min of mixing. The volume in each well was then transferred to a 96-well filter plate stacked on a Greiner deep well collection plate. The filter plate/collection plate was then centrifuged at 2000 rcf for 5 min. The filtrate was then evaporated to dryness under nitrogen. Samples were reconstituted in 200 µL of sample diluent (60∶40 methanol:10 mM ammonium acetate, native pH), sealed, and placed on a plate shaker for 15 min. These samples were then transferred to a Whatman 96-well 0.45 µm PVDF filter plate stacked on a Costar 3956 plate (HPLC injection plate), centrifuged at 2000 rcf for 2–3 min, and sealed with a silicon cap mat prior to LC-MS/MS analysis. d8-TCA standard spiking solutions were prepared in 50∶50 methanol:water. For a given lysate standard or control, 10 µL was added to each well of a previously frozen analytical plate. Standards representing 0.5–100 pmoles/well and QC’s at the LLQ and ULQ were prepared. These lysate standards and controls were then further processed as described above for unknown study samples. Prepared samples were filtered and analyzed by LC-MS/MS using a Shimadzu binary HPLC system (Columbia, MD) and tandem mass spectrometry using Thermo Electron TSQ® Quantum Discovery MAX™ (Waltham, MA) with an Ion Max ESI source operating in negative ion electrospray ionization mode. Results for unknowns and QCs were calculated using a standard curve based on an internal standard processing method.
Data calculations were performed using Microsoft Excel, 2010 with all values reported as mean ± standard deviation (SD). Statistical comparisons across ERA treatments were performed using analysis of variance (ANOVA) with Fisher’s PLSD post hoc analysis (Statview 5.0, SAS Institute, Cary NC); statistical significance was considered to be P<0.05. All mass values were normalized to mg protein by taking the average protein mass in the taurocholate plate determined using a BCA protein assay (Pierce Biotechnology, Rockford, IL). Cellular accumulation determined in Minus (−) buffer (Accumulation Minus (−) Buffer) represents the total mass of analyte inside the hepatocyte at the end of the incubation time period. […]

## CO[C@H]1/C=C/O[C@@]2(C)Oc3c(C)c(O)c4c(O)c(cc(O)c4c3C2=O)NC(=O)/C(C)=C\C=C\[C@H](C)[C@H](O)[C@@H](C)[C@@H](O)[C@@H](C)[C@H](OC(C)=O)[C@@H]1C [rifamycin-SV]
Untreated control 19.9±7.8
  d8-TCA Clb in the presence of control inhibitor: 4.5 ± 2.1 mL/min/kg
Untreated control 74.7%
  d8-TCA BEI in the presence of control inhibitor: 57.1%
